Source: PubChem BioAssay AID256 (DTP/NCI, 2004)
Where “and” joins values, the source holds several entries; their conditions need not be identical. Identical values can stand only once. Toxic doses and inconclusive results are not listed.

System: CD2F1 mice, L1210 leukemia ip, survival T/C
Assay: NCI In Vivo Anticancer Drug Screen. Data for tumor model L1210 Leukemia (intraperitoneal) in CD2F1 (CDF1) mice
Conditions: higher = longer survival
Method in brief: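 Each value reflects a quotient of treated over vehicle control outcomes in mice with a transplanted tumor.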

[1] = endpoint: mean survival time, dose: 100.0 mg/kg/injection, schedule: Q04DX003 (ip), vehicle: saline with Tween-80
[2] = endpoint: mean survival time, dose: 200.0 mg/kg/injection, schedule: Q04DX003 (ip), vehicle: saline with Tween-80
[3] = endpoint: mean survival time, dose: 100.0 mg/kg/injection, schedule: Q01DX009 (ip), vehicle: saline with Tween-80
[4] = endpoint: mean survival time, dose: 200.0 mg/kg/injection, schedule: Q01DX009 (ip), vehicle: saline with Tween-80
[5] = endpoint: mean survival time, dose: 100.0 mg/kg/injection, schedule: Q01DX001 (ip), vehicle: saline with Tween-80
[6] = endpoint: mean survival time, dose: 200.0 mg/kg/injection, schedule: Q01DX001 (ip), vehicle: saline with Tween-80
[7] = endpoint: mean survival time, dose: 400.0 mg/kg/injection, schedule: Q01DX001 (ip), vehicle: saline with Tween-80
[8] = endpoint: mean survival time, dose: 400.0 mg/kg/injection, schedule: Q01DX009 (ip), vehicle: saline with Tween-80
[9] = endpoint: mean survival time, dose: 25.0 mg/kg/injection, schedule: Q04DX003 (ip), vehicle: saline with Tween-80
[10] = endpoint: mean survival time, dose: 50.0 mg/kg/injection, schedule: Q04DX003 (ip), vehicle: saline with Tween-80
[11] = endpoint: mean survival time, dose: 50.0 mg/kg/injection, schedule: Q01DX001 (ip), vehicle: saline with Tween-80
[12] = endpoint: mean survival time, dose: 6.25 mg/kg/injection, schedule: Q04DX003 (ip), vehicle: saline with Tween-80

Compound: N#Cc1c(F)c(F)c(Oc2c(F)c(F)c(F)c(F)c2F)c(F)c1F
- T/C [1]: 94 % of control
- T/C [2]: 91 % of control

Compound: COC(=O)Nc1ccc(NC(=O)c2cscn2)c(NC(=O)OC)n1
- T/C [1]: 98 % of control
- T/C [2]: 91 % of control

Compound: Cc1ccc(S(=O)(=O)SC(Cl)(Cl)Cl)cc1
- T/C (endpoint: mean survival time, dose: 12.5 mg/kg/injection, schedule: Q01DX009 (ip), vehicle: saline): 94 % of control
- T/C (endpoint: mean survival time, dose: 25.0 mg/kg/injection, schedule: Q01DX009 (ip), vehicle: saline): 102 % of control

Compound: Nc1nc(N)c2[nH]c(-c3ccccc3)nc2n1
- T/C (endpoint: mean survival time, dose: 6.25 mg/kg/injection, schedule: Q01DX005 (ip), vehicle: saline with Tween-80): 100 % of control
- T/C (endpoint: mean survival time, dose: 12.5 mg/kg/injection, schedule: Q01DX005 (ip), vehicle: saline with Tween-80): 97 % of control
- T/C (endpoint: mean survival time, dose: 25.0 mg/kg/injection, schedule: Q01DX005 (ip), vehicle: saline with Tween-80): 99 % of control
- T/C (endpoint: mean survival time, dose: 50.0 mg/kg/injection, schedule: Q01DX005 (ip), vehicle: saline with Tween-80): 99 % of control

Compound: OCC1OC(n2cnc3c4ccccc4ccc32)C(O)C1O (centres undefined)
- T/C (endpoint: median survival time, dose: 10.0 mg/kg/injection, schedule: Q01DX005 (ip), vehicle: saline with Tween-80): 110 % of control
- T/C (endpoint: median survival time, dose: 16.25 mg/kg/injection, schedule: Q01DX005 (ip), vehicle: saline with Tween-80): 98 % of control
- T/C (endpoint: median survival time, dose: 20.0 mg/kg/injection, schedule: Q01DX005 (ip), vehicle: saline with Tween-80): 103 % of control
- T/C (endpoint: median survival time, dose: 32.5 mg/kg/injection, schedule: Q01DX005 (ip), vehicle: saline with Tween-80): 100 % of control
- T/C (endpoint: median survival time, dose: 40.0 mg/kg/injection, schedule: Q01DX005 (ip), vehicle: saline with Tween-80): 97 % of control
- T/C (endpoint: median survival time, dose: 65.0 mg/kg/injection, schedule: Q01DX005 (ip), vehicle: saline with Tween-80): 107 % of control
- T/C (endpoint: median survival time, dose: 80.0 mg/kg/injection, schedule: Q01DX005 (ip), vehicle: saline with Tween-80): 103 % of control
- T/C (endpoint: median survival time, dose: 130.0 mg/kg/injection, schedule: Q01DX005 (ip), vehicle: saline with Tween-80): 97 % of control

Compound: Cc1c(N=NN(C)C)cc[n+]([O-])c1C
- T/C (endpoint: mean survival time, dose: 11.0 mg/kg/injection, schedule: Q01DX009 (ip), vehicle: water): 121 % of control
- T/C (endpoint: mean survival time, dose: 25.0 mg/kg/injection, schedule: Q01DX009 (ip), vehicle: water): 157 % of control
- T/C (endpoint: mean survival time, dose: 37.5 mg/kg/injection, schedule: Q01DX009 (ip), vehicle: water): 159 % of control

Compound: NNC(=O)NO
- T/C (endpoint: mean survival time, dose: 12.5 mg/kg/injection, schedule: Q01DX009 (ip), vehicle: saline with Tween-80): 166 % of control
- T/C (endpoint: mean survival time, dose: 25.0 mg/kg/injection, schedule: Q01DX009 (ip), vehicle: saline with Tween-80): 162 % of control
- T/C (endpoint: mean survival time, dose: 50.0 mg/kg/injection, schedule: Q01DX009 (ip), vehicle: saline with Tween-80): 103 % of control
- T/C [3]: 97 % of control
- T/C [4]: 87 % of control

Compound: CC(C)(C)OC(=O)C(CCC(=O)O)NC(=O)OCc1ccccc1 (centres undefined)
- T/C [1]: 99 % of control
- T/C [2]: 97 % of control
- T/C (endpoint: mean survival time, dose: 400.0 mg/kg/injection, schedule: Q04DX003 (ip), vehicle: saline with Tween-80): 100 % of control

Compound: CCOC(=O)c1cc(=O)cc(C(=O)OCC)o1
- T/C [5]: 100 % of control
- T/C [6]: 100 % of control
- T/C [7]: 100 % of control

Compound: CCN(C(=O)Nc1ccc(Cl)cc1)c1ccccc1
- T/C [3]: 97 % of control
- T/C [4]: 100 % of control
- T/C [8]: 96 % of control

Compound: C/C(=C\Cl)CO
- T/C (endpoint: mean survival time, dose: 50.0 mg/kg/injection, schedule: Q01DX009 (ip), vehicle: acetone): 100 % of control
- T/C (endpoint: mean survival time, dose: 100.0 mg/kg/injection, schedule: Q01DX009 (ip), vehicle: acetone): 106 % of control

Compound: COc1ccc(OC)c(C(=O)CC(O)(C(F)(F)F)C(F)(F)F)c1
- T/C [3]: 97 % of control
- T/C [4]: 101 % of control
- T/C [8]: 97 % of control

Compound: CCC[CH2][Pb]([CH2]CCC)([CH2]CCC)[O]C(C)=O
- T/C (endpoint: mean survival time, dose: 2.5 mg/kg/injection, schedule: Q01DX001 (ip), vehicle: other): 96 % of control
- T/C (endpoint: mean survival time, dose: 5.0 mg/kg/injection, schedule: Q01DX001 (ip), vehicle: other): 115 % of control
- T/C (endpoint: mean survival time, dose: 10.0 mg/kg/injection, schedule: Q01DX001 (ip), vehicle: other): 93 % of control
- T/C [9]: 95 % of control
- T/C [10]: 87 % of control

Compound: Cc1cc(=O)n(C)c2c(C)cccc12
- T/C [3]: 98 % of control
- T/C [4]: 92 % of control
- T/C [8]: 95 % of control

Compound: O=Cc1ccc[nH]1
- T/C (endpoint: mean survival time, dose: 100.0 mg/kg/injection, schedule: Q01DX001 (ip), vehicle: saline): 94 % of control
- T/C (endpoint: mean survival time, dose: 100.0 mg/kg/injection, schedule: Q04DX003 (ip), vehicle: saline): 104 % of control
- T/C (endpoint: mean survival time, dose: 200.0 mg/kg/injection, schedule: Q01DX001 (ip), vehicle: saline): 100 % of control
- T/C (endpoint: mean survival time, dose: 200.0 mg/kg/injection, schedule: Q04DX003 (ip), vehicle: saline): 101 % of control
- T/C (endpoint: mean survival time, dose: 400.0 mg/kg/injection, schedule: Q01DX001 (ip), vehicle: saline): 100 % of control
- T/C (endpoint: mean survival time, dose: 400.0 mg/kg/injection, schedule: Q04DX003 (ip), vehicle: saline): 108 % of control

Compound: Oc1c(F)c(F)c(-c2c(F)ccc(F)c2F)c(F)c1F
- T/C (endpoint: mean survival time, dose: 25.0 mg/kg/injection, schedule: Q01DX001 (ip), vehicle: saline with Tween-80): 92 % of control
- T/C [11]: 102 % of control
- T/C [5]: 94 % of control

Compound: CSc1nnc(SC)c(SC)n1
- T/C (endpoint: mean survival time, dose: 75.0 mg/kg/injection, schedule: Q01DX001 (ip), vehicle: saline): 96 % of control

Compound: CC(C)(C(=O)c1ccccc1)C(=O)c1ccccc1
- T/C [11]: 104 % of control
- T/C [5]: 102 % of control
- T/C [3]: 100 % of control
- T/C [6]: 100 % of control
- T/C [4]: 94 % of control
- T/C [8]: 98 % of control

Compound: O=[N+]([O-])c1ccc(C[n+]2ccccc2)cc1
- T/C (endpoint: mean survival time, dose: 5.0 mg/kg/injection, schedule: Q01DX009 (ip), vehicle: saline): 87 % of control
- T/C (endpoint: mean survival time, dose: 5.0 mg/kg/injection, schedule: Q04DX003 (ip), vehicle: saline): 104 % of control
- T/C (endpoint: mean survival time, dose: 10.0 mg/kg/injection, schedule: Q01DX009 (ip), vehicle: saline): 90 % of control
- T/C (endpoint: mean survival time, dose: 10.0 mg/kg/injection, schedule: Q04DX003 (ip), vehicle: saline): 108 % of control
- T/C (endpoint: mean survival time, dose: 20.0 mg/kg/injection, schedule: Q01DX009 (ip), vehicle: saline): 95 % of control
- T/C (endpoint: mean survival time, dose: 20.0 mg/kg/injection, schedule: Q04DX003 (ip), vehicle: saline): 100 % of control

Compound: Nc1nc([S-])c2[nH]cnc2n1.[Cl-].[Cl-].[H+].[Pd+2].[Pd+2].[Pd+2]
- T/C (endpoint: mean survival time, dose: 3.13 mg/kg/injection, schedule: Q04DX003 (ip), vehicle: saline with Tween-80): 124 % of control
- T/C [12]: 164 % of control
- T/C (endpoint: mean survival time, dose: 100.0 mg/kg/injection, schedule: Q04DX003 (ip), vehicle: suspension in saline): 114 % of control and 91 % of control

Compound: [Cl][Pt+2][Cl].[NH-]C(c1ccccc1)C([NH-])c1ccccc1 (centres undefined)
- T/C [12]: 112 % of control and 110 % of control and 96 % of control
- T/C (endpoint: mean survival time, dose: 12.5 mg/kg/injection, schedule: Q04DX003 (ip), vehicle: saline with Tween-80): 102 % of control and 114 % of control and 106 % of control
- T/C [9]: 120 % of control and 124 % of control and 114 % of control
- T/C (endpoint: median survival time, dose: 10.0 mg/kg/injection, schedule: Q04DX003 (ip), vehicle: Klucel (hydroxypropylcellulose) (HPC)): 111 % of control
- T/C (endpoint: median survival time, dose: 20.0 mg/kg/injection, schedule: Q04DX003 (ip), vehicle: Klucel (hydroxypropylcellulose) (HPC)): 113 % of control
- T/C (endpoint: median survival time, dose: 40.0 mg/kg/injection, schedule: Q04DX003 (ip), vehicle: Klucel (hydroxypropylcellulose) (HPC)): 122 % of control
- T/C (endpoint: median survival time, dose: 50.0 mg/kg/injection, schedule: Q04DX003 (ip), vehicle: Klucel (hydroxypropylcellulose) (HPC)): 101 % of control
- T/C (endpoint: median survival time, dose: 80.0 mg/kg/injection, schedule: Q04DX003 (ip), vehicle: Klucel (hydroxypropylcellulose) (HPC)): 112 % of control
- T/C (endpoint: median survival time, dose: 100.0 mg/kg/injection, schedule: Q04DX003 (ip), vehicle: Klucel (hydroxypropylcellulose) (HPC)): 107 % of control
- T/C (endpoint: median survival time, dose: 200.0 mg/kg/injection, schedule: Q04DX003 (ip), vehicle: Klucel (hydroxypropylcellulose) (HPC)): 107 % of control

Compound: COC(=O)C(Br)CCC(Br)C(=O)OC (centres undefined)
- T/C [10]: 94 % of control
- T/C [3]: 95 % of control
- T/C [1]: 94 % of control
- T/C [4]: 103 % of control
- T/C [2]: 94 % of control

Compound: CCOC(=O)CCCCSCCCCC(=O)OCC
- T/C [5]: 100 % of control
- T/C [6]: 105 % of control
- T/C [7]: 101 % of control

Compound: C=C[Si](c1ccccc1)(c1ccccc1)c1ccccc1
- T/C (endpoint: mean survival time, dose: 75.0 mg/kg/injection, schedule: Q04DX003 (ip), vehicle: saline): 95 % of control
- T/C (endpoint: mean survival time, dose: 150.0 mg/kg/injection, schedule: Q04DX003 (ip), vehicle: saline): 97 % of control
- T/C (endpoint: mean survival time, dose: 300.0 mg/kg/injection, schedule: Q04DX003 (ip), vehicle: saline): 97 % of control
